# Measurements as given in PubChem BioAssay AID1845194 (Molecular Pharmacology Branch, DTP, NCI, 2023).
# “And” between values parts separate entries of the source, which are not always exact repeats. Identical values can stand only once.
# System: 287954-098-R-J1 tumor spheroid viability
# Assay: Anticancer human tumor 287954-098-R-J1 patient-derived Ewing sarcoma cell line growth inhibition
# Settings: spheroids with HUVEC and MSC; for viability, T/C: stronger effect = lower value
# How it was run: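 Complex tumor spheroids combined malignant cells with endothelial cells and mesenchymal stem cells. DNA-damaging drugs and DNA repair inhibitors were tested alone and in combination, at half-log dilutions down from clinical Cmax (top 10 microM if Cmax unknown), 0.25% DMSO final.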
# 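Further: spheroids exposed to compound for 7 days before viability readout.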
# 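Wherever viability, T/C is given: luminescent signal taken as surrogate of viable cell content; 100% = DMSO vehicle control viability and lower means growth inhibition.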
compound,measurement,setting,value
CNCc1ccc(-c2cc(-c3nc(-c4ccc(S(=O)(=O)C(C)C)cc4)cnc3N)on2)cc1 + Cn1nnc2c(C(N)=O)ncn2c1=O,IC50,"curve of first compound, second compound 1 µM",545 nM
same,IC50,"curve of first compound, second compound 3.16 µM",555 nM
same,IC50,"curve of first compound, second compound 10 µM",551 nM
same,IC50,"curve of first compound, second compound 31.6 µM",398 nM
same,IC50,"curve of first compound, second compound 100 µM",170 nM
same,"viability, T/C","second compound 1 µM, first compound 0.00949 µM",98.6%
same,"viability, T/C","second compound 1 µM, first compound 0.03 µM",103%
same,"viability, T/C","second compound 1 µM, first compound 0.0949 µM",110%
same,"viability, T/C","second compound 1 µM, first compound 0.3 µM",103%
same,"viability, T/C","second compound 1 µM, first compound 0.949 µM",0.19%
same,"viability, T/C","second compound 1 µM, first compound 3 µM",0.11%
same,"viability, T/C","second compound 3.16 µM, first compound 0.00949 µM",105%
same,"viability, T/C","second compound 3.16 µM, first compound 0.03 µM",106%
same,"viability, T/C","second compound 3.16 µM, first compound 0.0949 µM",113%
same,"viability, T/C","second compound 3.16 µM, first compound 0.3 µM",107%
same,"viability, T/C","second compound 3.16 µM, first compound 0.949 µM",0.19%
same,"viability, T/C","second compound 3.16 µM, first compound 3 µM",0.1%
same,"viability, T/C","second compound 10 µM, first compound 0.00949 µM",102%
same,"viability, T/C","second compound 10 µM, first compound 0.03 µM",110%
same,"viability, T/C","second compound 10 µM, first compound 0.0949 µM",106%
same,"viability, T/C","second compound 10 µM, first compound 0.3 µM",105%
same,"viability, T/C","second compound 10 µM, first compound 0.949 µM",0.16%
same,"viability, T/C","second compound 10 µM, first compound 3 µM",0.09%
same,"viability, T/C","second compound 31.6 µM, first compound 0.00949 µM",104%
same,"viability, T/C","second compound 31.6 µM, first compound 0.03 µM",106%
same,"viability, T/C","second compound 31.6 µM, first compound 0.0949 µM",121%
same,"viability, T/C","second compound 31.6 µM, first compound 0.3 µM",66.3%
same,"viability, T/C","second compound 31.6 µM, first compound 0.949 µM",0.13%
same,"viability, T/C","second compound 31.6 µM, first compound 3 µM",0.1%
same,"viability, T/C","second compound 100 µM, first compound 0.00949 µM",97.5%
same,"viability, T/C","second compound 100 µM, first compound 0.03 µM",100%
same,"viability, T/C","second compound 100 µM, first compound 0.0949 µM",103%
same,"viability, T/C","second compound 100 µM, first compound 0.3 µM",1.71%
same,"viability, T/C","second compound 100 µM, first compound 0.949 µM",0.14%
same,"viability, T/C","second compound 100 µM, first compound 3 µM",0.16%
CNCc1ccc(-c2cc(-c3nc(-c4ccc(S(=O)(=O)C(C)C)cc4)cnc3N)on2)cc1 + COc1cc2c(cc1O)CCNC21CSC2c3c(OC(C)=O)c(C)c4c(c3C(COC1=O)N1C(O)C3Cc5cc(C)c(OC)c(O)c5C(C21)N3C)OCO4,IC50,"curve of first compound, second compound 30 pM",516 nM
same,IC50,"curve of first compound, second compound 94.9 pM",207 nM
same,IC50,"curve of first compound, second compound 0.0003 µM",154 nM
same,IC50,"curve of first compound, second compound 0.000949 µM",< 9.49 nM
same,IC50,"curve of first compound, second compound 0.003 µM",< 9.49 nM
same,"viability, T/C","second compound 30 pM, first compound 0.00949 µM",109%
same,"viability, T/C","second compound 30 pM, first compound 0.03 µM",108%
same,"viability, T/C","second compound 30 pM, first compound 0.0949 µM",110%
same,"viability, T/C","second compound 30 pM, first compound 0.3 µM",94.5%
same,"viability, T/C","second compound 30 pM, first compound 0.949 µM",0.18%
same,"viability, T/C","second compound 30 pM, first compound 3 µM",0.12%
same,"viability, T/C","second compound 94.9 pM, first compound 0.00949 µM",111%
same,"viability, T/C","second compound 94.9 pM, first compound 0.03 µM",106%
same,"viability, T/C","second compound 94.9 pM, first compound 0.0949 µM",113%
same,"viability, T/C","second compound 94.9 pM, first compound 0.3 µM",21.7%
same,"viability, T/C","second compound 94.9 pM, first compound 0.949 µM",0.11%
same,"viability, T/C","second compound 94.9 pM, first compound 3 µM",0.14%
same,"viability, T/C","second compound 0.0003 µM, first compound 0.00949 µM",110%
same,"viability, T/C","second compound 0.0003 µM, first compound 0.03 µM",115%
same,"viability, T/C","second compound 0.0003 µM, first compound 0.0949 µM",85.7%
same,"viability, T/C","second compound 0.0003 µM, first compound 0.3 µM",0.62%
same,"viability, T/C","second compound 0.0003 µM, first compound 0.949 µM",0.04%
same,"viability, T/C","second compound 0.0003 µM, first compound 3 µM",0.13%
same,"viability, T/C","second compound 0.000949 µM, first compound 0.00949 µM",0.42%
same,"viability, T/C","second compound 0.000949 µM, first compound 0.03 µM",0.41%
same,"viability, T/C","second compound 0.000949 µM, first compound 0.0949 µM",0.26%
same,"viability, T/C","second compound 0.000949 µM, first compound 0.3 µM",0.07%
same,"viability, T/C","second compound 0.000949 µM, first compound 0.949 µM",0.03%
same,"viability, T/C","second compound 0.000949 µM, first compound 3 µM",0.14%
same,"viability, T/C","second compound 0.003 µM, first compound 0.00949 µM",0.21%
same,"viability, T/C","second compound 0.003 µM, first compound 0.03 µM",0.22%
same,"viability, T/C","second compound 0.003 µM, first compound 0.0949 µM",0.18%
same,"viability, T/C","second compound 0.003 µM, first compound 0.3 µM",0.17%
same,"viability, T/C","second compound 0.003 µM, first compound 0.949 µM",0.16%
same,"viability, T/C","second compound 0.003 µM, first compound 3 µM",0.24%
[2H]c1nc(C)nc([2H])c1-c1cc(NC[C@@H](C)c2cccc3c(C(=O)NC)ccnc23)ncn1,"viability, T/C",compound 0.0316 µM,96.4% and 109% and 110%
same,"viability, T/C",compound 0.1 µM,101% and 107% and 112%
same,"viability, T/C",compound 0.316 µM,95.5% and 108% and 106%
same,"viability, T/C",compound 1 µM,104% and 102% and 108%
same,"viability, T/C",compound 3.16 µM,98.3% and 96.3% and 100%
same,"viability, T/C",compound 10 µM,101% and 103% and 109%
same,IC50,curve of compound,> 10000 nM
